According to PubChem BioAssay (NCI):
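Dose response: 5 concentrations. Exposure: 48 h. Format: 96-well plates. Endpoint: linear interpolation; highest concentration if not reached. GI50: concentration for 50% inhibition of growth. TGI marks complete inhibition of growth.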

Columns and labels:
Test in all cases: NCI tumour cell line growth inhibition, 48 h
HCT-15 colon = system: HCT-15 colon
HCT-116 colon = system: HCT-116 colon
EKVX NSCLC = system: EKVX NSCLC
OVCAR-4 ovarian = system: OVCAR-4 ovarian
RPMI-8226 leukemia = system: RPMI-8226 leukemia
T-47D breast = system: T-47D breast
RXF 393 renal = system: RXF 393 renal
SN12K1 renal = system: SN12K1 renal
DMS 114 small cell lung = system: DMS 114 small cell lung
SNB-78 CNS = system: SNB-78 CNS

Q: Which results are given for N#Cc1c(NC(=S)NC(=O)c2ccccc2)nc2c(c1-c1ccccc1)CCC2?
A: TGI (HCT-15 colon): > 100 µM; TGI (HCT-116 colon): > 100 µM; TGI (EKVX NSCLC): > 100 µM; TGI (OVCAR-4 ovarian): > 100 µM; TGI (RPMI-8226 leukemia): > 100 µM; TGI (T-47D breast): > 100 µM

Q: With CSC1=Nc2ccccc2N(C)c2c1c(-c1ccccc1)nn2C as the compound, how does the TGI (RXF 393 renal) read?
A: > 100 µM

Q: What about the TGI (HCT-15 colon) of the same compound?
A: > 100 µM

Q: And the TGI (HCT-116 colon)?
A: > 100 µM

Q: And the TGI (EKVX NSCLC)?
A: > 100 µM

Q: What about the TGI (OVCAR-4 ovarian) of the same compound?
A: > 100 µM

Q: And the TGI (RPMI-8226 leukemia)?
A: 37.1 µM

Q: What about the TGI (T-47D breast) of the same compound?
A: 49.7 µM

Q: For O=C1CC(=O)N(c2ccccc2)N1/C(=C/c1ccccc1)c1ccccc1, which TGI (RXF 393 renal) is on record?
A: 36.5 µM

Q: What about the TGI (HCT-116 colon) of the same compound?
A: 32 µM

Q: What about the TGI (EKVX NSCLC) of the same compound?
A: > 100 µM

Q: And the TGI (OVCAR-4 ovarian)?
A: 60.5 µM

Q: What about the TGI (RPMI-8226 leukemia) of the same compound?
A: 34.5 µM

Q: What about the TGI (T-47D breast) of the same compound?
A: 67.8 µM

Q: With COC1OC(=O)[C@H]2O[N+]([O-])=C(C)[C@@H]12 (stereo partly specified) as the compound, how does the TGI (RXF 393 renal) read?
A: > 100 µM

Q: What about the TGI (HCT-15 colon) of the same compound?
A: > 100 µM

Q: What about the TGI (HCT-116 colon) of the same compound?
A: > 100 µM

Q: What about the TGI (SN12K1 renal) of the same compound?
A: > 100 µM

Q: What about the TGI (EKVX NSCLC) of the same compound?
A: > 100 µM

Q: What about the TGI (OVCAR-4 ovarian) of the same compound?
A: > 100 µM

Q: And the TGI (RPMI-8226 leukemia)?
A: > 100 µM

Q: What about the TGI (DMS 114 small cell lung) of the same compound?
A: > 100 µM

Q: And the TGI (SNB-78 CNS)?
A: > 100 µM

Q: For CCn1cc(C(c2ccc(Cl)cc2)n2ccnc2)c2cc(Br)ccc21 (stereo unspecified), which TGI (RXF 393 renal) is on record?
A: 29.9 µM

Q: What about the TGI (HCT-15 colon) of the same compound?
A: 30.6 µM

Q: And the TGI (HCT-116 colon)?
A: 33.8 µM

Q: What about the TGI (EKVX NSCLC) of the same compound?
A: > 100 µM

Q: And the TGI (OVCAR-4 ovarian)?
A: 22.8 µM

Q: What about the TGI (RPMI-8226 leukemia) of the same compound?
A: 75 µM

Q: What does the source list for O=[Se]([O-])c1ccccc1.O=[Se]([O-])c1ccccc1.[OH3+].[OH3+].[Pt+2]?
A: GI50 (RXF 393 renal): 22.7 µM; TGI (RXF 393 renal): 40.6 µM; GI50 (HCT-15 colon): 6.02 µM; TGI (HCT-15 colon): 28.6 µM; GI50 (HCT-116 colon): 3.14 µM; TGI (HCT-116 colon): 9.5 µM; GI50 (SN12K1 renal): 4.5 µM; TGI (SN12K1 renal): 15 µM; GI50 (EKVX NSCLC): 6.34 µM; TGI (EKVX NSCLC): 26 µM; GI50 (OVCAR-4 ovarian): 2.15 µM; TGI (OVCAR-4 ovarian): 10.3 µM; GI50 (RPMI-8226 leukemia): 5.41 µM; TGI (RPMI-8226 leukemia): 39.7 µM; GI50 (DMS 114 small cell lung): 3.73 µM; TGI (DMS 114 small cell lung): 20.8 µM; GI50 (SNB-78 CNS): 15.3 µM; TGI (SNB-78 CNS): 37.5 µM

Q: With Nc1n[nH]c(=O)[nH]1 as the compound, how does the TGI (RXF 393 renal) read?
A: > 100 µM

Q: What about the TGI (HCT-15 colon) of the same compound?
A: > 100 µM

Q: And the TGI (HCT-116 colon)?
A: > 100 µM

Q: What about the TGI (SN12K1 renal) of the same compound?
A: > 100 µM

Q: And the TGI (EKVX NSCLC)?
A: > 100 µM

Q: And the TGI (OVCAR-4 ovarian)?
A: > 100 µM

Q: What about the TGI (RPMI-8226 leukemia) of the same compound?
A: > 100 µM

Q: And the TGI (DMS 114 small cell lung)?
A: > 100 µM

Q: And the TGI (SNB-78 CNS)?
A: > 100 µM

Q: For Cc1[nH]c(/C=C2\C(=O)Nc3ccc(S(=O)(=O)Cc4c(Cl)cccc4Cl)cc32)c(C)c1C(=O)N1CCC[C@@H]1CN1CCCC1, which GI50 (HCT-15 colon) is on record?
A: 1.71 µM

Q: What about the TGI (HCT-15 colon) of the same compound?
A: 3.51 µM

Q: And the GI50 (OVCAR-4 ovarian)?
A: 26.1 µM

Q: And the TGI (OVCAR-4 ovarian)?
A: 70.7 µM

Q: What about the GI50 (T-47D breast) of the same compound?
A: 12.2 µM

Q: What about the TGI (T-47D breast) of the same compound?
A: 35.9 µM

Q: For C=CC(=O)Nc1cccc(-c2nc(SC)nc(Nc3ccccc3OC)c2C#N)c1, which GI50 (RXF 393 renal) is on record?
A: 1.95 µM

Q: And the TGI (RXF 393 renal)?
A: 5.42 µM

Q: What about the GI50 (EKVX NSCLC) of the same compound?
A: 2.71 µM

Q: What about the TGI (EKVX NSCLC) of the same compound?
A: 10.4 µM

Q: What about the GI50 (RPMI-8226 leukemia) of the same compound?
A: 3.11 µM

Q: And the TGI (RPMI-8226 leukemia)?
A: > 100 µM

Q: What about the GI50 (T-47D breast) of the same compound?
A: 1.59 µM

Q: What about the TGI (T-47D breast) of the same compound?
A: 4.34 µM

Q: How did the TGI (RXF 393 renal) turn out when O=C(Nc1ccc(I)cc1C(=O)NCCO)c1cccs1 was run?
A: > 100 µM

Q: And the TGI (HCT-15 colon)?
A: > 100 µM

Q: And the TGI (HCT-116 colon)?
A: > 100 µM

Q: And the TGI (EKVX NSCLC)?
A: > 100 µM

Q: What about the TGI (OVCAR-4 ovarian) of the same compound?
A: > 100 µM

Q: And the TGI (RPMI-8226 leukemia)?
A: > 100 µM
